Assay [1] addresses GDP-bound NRAS wild-type protein (Homo sapiens, UniProt P01111). Nature of the assay: Binding to NRAS by surface plasmon resonance (SPR), KD and KD ratio to KRAS. The note with it: ratio of the KD value with respect to GDP-bound NRAS wild-type protein to the KD value with respect to KRAS. The method, boiled down:
(§1)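 GDP-bound biotin-Avi RAS captured at ~100–300 RU, 30°C, pH 7.4 HBS containing 10 µM GDP, 10 mM MgCl2, 1 mM DTT, 0.01% Tween 20 and 4% DMSO. KD by 1:1 fitting.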
A general note: Surface plasmon resonance follows binding to a sensor surface in real time, without labels.

Assay [2] concerns human lung cancer strain NCI-H441. It is filed as cell-based. In a few lines: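 Readout: […] after the ATP-based reagent. Compound: serial dilutions in dimethyl sulfoxide.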
For assay [3], the target named is GDP-bound KRAS wild-type protein (Homo sapiens, UniProt P01116). The assay can be described thus: Binding to KRAS by surface plasmon resonance (SPR), dissociation constant KD. The settings on record: Single Cycle Kinetics, 1:1 binding model. In a few lines:
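Biotinylated GDP-bound RAS was captured at about 100–300 RU. Running buffer: HBS pH 7.4, 10 mM MgCl2, 10 µM GDP, 1 mM DTT, 0.01% Tween 20, 4% DMSO.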

Another assay deals with HRAS wild-type protein (Homo sapiens, UniProt P01112). The assay can be described thus: Binding to HRAS by surface plasmon resonance (SPR), KD and KD ratio to KRAS. The settings on record: ratio of the KD value with respect to HRAS wild-type protein to the KD value with respect to KRAS. The method, boiled down: as §1

The values that follow come from EP4603105A1, “PHARMACEUTICAL COMPOSITION CONTAINING CYCLIC COMPOUND HAVING SELECTIVE KRAS INHIBITORY EFFECT AGAINST HRAS AND NRAS” (CHUGAI SEIYAKU KABUSHIKI KAISHA, priority 2022, dated 2024).

For orientation: IC50 means the point on the concentration scale where inhibition reaches its midpoint. By Kd is commonly meant the free concentration of one partner at which half of the binding sites on the other are occupied at equilibrium, for simple one-to-one binding. Higher therefore signals a looser complex.

SMILES strings stand for the structures. Where only a bound is given, the exact number is not on record here.

Chain of HRAS wild-type protein (P01112 whole entry): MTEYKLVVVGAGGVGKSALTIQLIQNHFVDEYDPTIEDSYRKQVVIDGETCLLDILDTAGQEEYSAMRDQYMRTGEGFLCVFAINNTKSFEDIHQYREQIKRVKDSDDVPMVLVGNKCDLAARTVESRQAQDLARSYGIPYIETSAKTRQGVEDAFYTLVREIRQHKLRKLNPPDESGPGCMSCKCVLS
Chain of GDP-bound NRAS wild-type protein (P01111 whole entry): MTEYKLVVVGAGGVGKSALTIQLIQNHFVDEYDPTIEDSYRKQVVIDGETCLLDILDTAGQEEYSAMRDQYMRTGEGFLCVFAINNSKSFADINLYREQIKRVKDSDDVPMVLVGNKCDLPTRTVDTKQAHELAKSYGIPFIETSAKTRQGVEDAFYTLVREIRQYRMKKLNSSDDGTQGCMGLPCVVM
Chain of GDP-bound KRAS wild-type protein (P01116 1-188 isoform P01116-2): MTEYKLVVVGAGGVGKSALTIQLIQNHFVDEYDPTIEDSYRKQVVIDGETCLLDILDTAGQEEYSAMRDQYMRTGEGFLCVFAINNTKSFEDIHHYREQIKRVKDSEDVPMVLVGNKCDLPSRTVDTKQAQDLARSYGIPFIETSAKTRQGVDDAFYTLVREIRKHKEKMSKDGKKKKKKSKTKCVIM

`CC[C@H](C)[C@@H]1NC(=O)[C@H](CC(C)C)N(C)C(=O)C[C@@H](C(=O)N2CCOCC2)N(C)C(=O)[C@H](C2CCCC2)N(C)C(=O)C2(CCCC2)NC(=O)[C@@H]2CCCN2C(=O)[C@H](CCc2ccc(C(F)(F)F)c(Cl)c2)NC(=O)CN(C)C(=O)[C@H](Cc2ccc(OC)cc2)N2C/C=C\CC[C@@H](C2=O)N(C)C(=O)CN(C)C1=O` [PP0609]: the “NRAS /KRAS” value in assay [1] was “B (a compound having 3 or more and less than 10 is denoted as B)”. The IC50 in assay [2] was found to be 468 nM. Binding in assay [3] was put at a Kd of 3.9 nM. For the same compound, on HRAS wild-type protein, the “HRAS /KRAS” value was “B (a compound having 3 or more and less than 10 is denoted as B)”.

For the compound `CC[C@H](C)[C@@H]1NC(=O)[C@H](CC(C)C)N(C)C(=O)C[C@@H](C(=O)N2CCOCC2)N(C)C(=O)[C@H](C2CCCC2)N(C)C(=O)C2(CCCC2)NC(=O)[C@@H]2CCCN2C(=O)[C@H](CCc2ccc(C(F)(F)F)c(Cl)c2)NC(=O)CN(C)C(=O)[C@H](Cc2ccccc2)N2CCCCC[C@@H](C2=O)N(C)C(=O)CN(C)C1=O` [PP0611], the “NRAS /KRAS” value in assay [1] was “B (a compound having 3 or more and less than 10 is denoted as B)”. In addition, the IC50 in assay [2] came to 88.9 nM. The same compound gave a Kd in assay [3] of 0.73 nM. Moreover, at HRAS wild-type protein, the “HRAS /KRAS” value was “B (a compound having 3 or more and less than 10 is denoted as B)”.

Regarding `CC[C@H](C)[C@@H]1NC(=O)[C@H](CC(C)C)N(C)C(=O)C[C@@H](C(=O)N(C)C)N(C)C(=O)[C@H](C2CCCC2)N(C)C(=O)C2(CCCC2)NC(=O)[C@@H]2CCCN2C(=O)[C@H](CCc2ccc(C(F)(F)F)c(Cl)c2)NC(=O)CN(C)C(=O)[C@H](Cc2ccc(C)cc2)N2CC=C(C)C[C@@H](C2=O)N(C)C(=O)CN(C)C1=O` [PP0620], in assay [1], the “NRAS /KRAS” value is “C (A compound having a KD ratio of 0.1 or more and less than 3 is denoted as C)”. The IC50 in assay [2] stood at 38.4 nM. The compound also registered a Kd in assay [3] of 0.69 nM. The “HRAS /KRAS” value at HRAS wild-type protein was “C (A compound having a KD ratio of 0.1 or more and less than 3 is denoted as C)”.

Regarding `CC[C@H](C)[C@@H]1NC(=O)[C@H](CC(C)C)N(C)C(=O)C[C@@H](C(=O)N(C)C)N(C)C(=O)[C@H](C2CCCC2)N(C)C(=O)C2(CCCC2)NC(=O)[C@@H]2CCCN2C(=O)[C@H](CCc2ccc(C(F)(F)F)c(Cl)c2)NC(=O)CN(C)C(=O)[C@H](Cc2ccc(C(F)(F)F)cc2)N2CC=CCOC[C@H](C2=O)N(C)C(=O)CN(C)C1=O` [PP0628], in assay [1], the “NRAS /KRAS” value was “C (A compound having a KD ratio of 0.1 or more and less than 3 is denoted as C)”. This compound showed an IC50 in assay [2] of 46.3 nM. The compound further had a Kd in assay [3] of 2.4 nM. Also, the “HRAS /KRAS” value on HRAS wild-type protein is “C (A compound having a KD ratio of 0.1 or more and less than 3 is denoted as C)”.

Take `CC[C@H](C)[C@@H]1NC(=O)[C@H](CC(C)C)N(C)C(=O)C[C@@H](C(=O)N(C)C)N(C)C(=O)[C@H](C2CCCC2)N(C)C(=O)C2(CCCC2)NC(=O)[C@@H]2CCCN2C(=O)[C@H](CCc2ccc(C(F)(F)F)c(Cl)c2)NC(=O)CN(C)C(=O)[C@H](Cc2ccc(C)cc2)N2CC=CCOC[C@H](C2=O)N(C)C(=O)CN(C)C1=O` [PP0629]: the “NRAS /KRAS” value in assay [1] was “B (a compound having 3 or more and less than 10 is denoted as B)”. Further, in assay [2], the IC50 is 45.1 nM. Also, the Kd in assay [3] was 2.4 nM. Also, the “HRAS /KRAS” value at HRAS wild-type protein was “C (A compound having a KD ratio of 0.1 or more and less than 3 is denoted as C)”.

Take `CCO[C@@H]1C[C@H]2C(=O)NC3(CCC3)C(=O)N(C)[C@@H](C3CCCC3)C(=O)N(CC)[C@H](C(=O)N3CCOCC3)CC(=O)N(C)[C@@H](CC(C)C)C(=O)N[C@@H]([C@@H](C)CC)C(=O)N(C)CC(=O)N(C)[C@H]3CCCCCN(C3=O)[C@@H](Cc3ccc(C(F)(F)F)cc3)C(=O)N(C)CC(=O)N[C@@H](CCc3cc(F)c(C(F)(F)F)c(F)c3)C(=O)N2C1` [PP0638]: the “NRAS /KRAS” value in assay [1] is “B (a compound having 3 or more and less than 10 is denoted as B)”. Further, it took 341 nM to reach half-maximal inhibition in assay [2] (IC50). In assay [3], this compound came in with a Kd of 3.4 nM. In addition, the “HRAS /KRAS” value on HRAS wild-type protein is “B (a compound having 3 or more and less than 10 is denoted as B)”.

Regarding `CCO[C@@H]1C[C@H]2C(=O)NC3(CCC3)C(=O)N(C)[C@@H](C3CCCC3)C(=O)N(CCC3CCC3)[C@H](C(=O)N3CCOCC3)CC(=O)N(C)[C@@H](CC(C)C)C(=O)N[C@@H]([C@@H](C)CC)C(=O)N(C)CC(=O)N(C)[C@H]3CCCCCN(C3=O)[C@@H](Cc3ccc(C(F)(F)F)cc3)C(=O)N(C)CC(=O)N[C@@H](CCc3cc(F)c(C(F)(F)F)c(F)c3)C(=O)N2C1` [PP0640], the “NRAS /KRAS” value in assay [1] is “B (a compound having 3 or more and less than 10 is denoted as B)”. For the same compound, in assay [2], the IC50 is > 600 nM. In assay [3], this compound came in with a Kd of 20 nM. Moreover, the “HRAS /KRAS” value on HRAS wild-type protein is “B (a compound having 3 or more and less than 10 is denoted as B)”.

For `CCO[C@@H]1C[C@H]2C(=O)NC3(CCC3)C(=O)N(C)[C@@H](C3CCCC3)C(=O)N(CCC3CCCC3)[C@H](C(=O)N3CCOCC3)CC(=O)N(C)[C@@H](CC(C)C)C(=O)N[C@@H]([C@@H](C)CC)C(=O)N(C)CC(=O)N(C)[C@H]3CCCCCN(C3=O)[C@@H](Cc3ccc(C(F)(F)F)cc3)C(=O)N(C)CC(=O)N[C@@H](CCc3cc(F)c(C(F)(F)F)c(F)c3)C(=O)N2C1` [PP0641], in assay [1], the “NRAS /KRAS” value is “A (a compound having 10 or more and less than 20 is denoted as A)”. In assay [2], the IC50 is > 1300 nM. Besides, the Kd in assay [3] was 26 nM. In addition, at HRAS wild-type protein, the “HRAS /KRAS” value was “A (a compound having 10 or more and less than 20 is denoted as A)”.

`CCO[C@@H]1C[C@H]2C(=O)NC3(CCC3)C(=O)N(C)[C@@H](C3CCCC3)C(=O)N(CCc3ccccc3)[C@H](C(=O)N3CCOCC3)CC(=O)N(C)[C@@H](CC(C)C)C(=O)N[C@@H]([C@@H](C)CC)C(=O)N(C)CC(=O)N(C)[C@H]3CCCCCN(C3=O)[C@@H](Cc3ccc(C(F)(F)F)cc3)C(=O)N(C)CC(=O)N[C@@H](CCc3cc(F)c(C(F)(F)F)c(F)c3)C(=O)N2C1` [PP0642]: the “NRAS /KRAS” value in assay [1] was “B (a compound having 3 or more and less than 10 is denoted as B)”. In assay [2], this compound returned an IC50 of 2650 nM. This compound gave a Kd in assay [3] of 110 nM. Also, the “HRAS /KRAS” value at HRAS wild-type protein was “B (a compound having 3 or more and less than 10 is denoted as B)”.

For `CCCN1C(=O)[C@H](C2CCCC2)N(C)C(=O)C2(CCC2)NC(=O)[C@@H]2C[C@@H](OCC)CN2C(=O)[C@H](CCc2cc(F)c(C(F)(F)F)c(F)c2)NC(=O)CN(C)C(=O)[C@H](Cc2ccc(C(F)(F)F)cc2)N2CCCC[C@@H](C2=O)N(C)C(=O)CN(C)C(=O)[C@H]([C@@H](C)CC)NC(=O)[C@H](CC)N(C)C(=O)C[C@H]1C(=O)N(C)C` [PP0644], in assay [1], the “NRAS /KRAS” value was “C (A compound having a KD ratio of 0.1 or more and less than 3 is denoted as C)”. The compound further displayed an IC50 in assay [2] of 20.7 nM. Binding in assay [3] was put at a Kd of 0.15 nM. The “HRAS /KRAS” value on HRAS wild-type protein was “B (a compound having 3 or more and less than 10 is denoted as B)”.

With `CC[C@H](C)[C@@H]1NC(=O)[C@H](CC)N(C)C(=O)C[C@@H](C(=O)N(C)C)N(C)C(=O)[C@H](C2CCCC2)N(C)C(=O)C2(CCC2)NC(=O)[C@@H]2CCN2C(=O)[C@H](CCc2cc(F)c(C(F)(F)F)c(F)c2)NC(=O)CN(C)C(=O)[C@H](Cc2ccc(C(F)(F)F)cc2)N2CCCCC[C@@H](C2=O)N(C)C(=O)CN(C)C1=O` [PP0654], in assay [1], the “NRAS /KRAS” value is “B (a compound having 3 or more and less than 10 is denoted as B)”. This compound returned an IC50 in assay [2] of 690 nM. Besides, in assay [3], the Kd came to 2 nM. On HRAS wild-type protein, the “HRAS /KRAS” value is “B (a compound having 3 or more and less than 10 is denoted as B)”.
